Results published in EP0786471A1, “Arthrichitin, a process for its production and its use” (HOECHST AKTIENGESELLSCHAFT, priority 1996, dated 1997).

Key:
[1] = test system: Pseudocercosporella herpotrichoides; test: in vivo activity against phytopathogenic fungi
[2] = test system: Septoria nodorum; test: in vivo activity against phytopathogenic fungi
[3] = test system: Pyricularia oryzae; details: in vivo
[4] = test system: Erysiphe graminis; test: in vivo activity against phytopathogenic fungi
[5] = test system: Plasmopara viticola; test: in vivo activity against phytopathogenic fungi
[6] = test system: Botrytis cinerea; test: in vivo activity against phytopathogenic fungi
[7] = test system: Neurospora crassa strain SGF 18; test: modified screening method of detecting cell-wall active compounds; format: cell-based
Method: Fermentation carried out for about 90 hours under submerged condition in shake flasks in order to achieve the maximum activity is particularly preferred. The progress of fermentation and the formation of Arthrichitin of the present invention can be detected by the modified screening method of detecting the cell-wall active compounds [J. Antibiotics, 39(11), 1620-1622, 1986] using the Neurospora crassa strain SGF 18.
The production of Arthrichitin was monitored by using the modified screening method of detecting cell-wall active compounds [J. Antibiot., 39 (11), 1620-22, 1986] using the Neurospora crassa strain SGF 18 and growing it in a medium containing the following nutrients : soluble starch 1.5%; Yeast extract 0.4%; K2HPO4 0.1 %; MgSO4.7H2O 0.05%; D-Sorbitol 7.5% (Osmotic stabilizer); L-Sorbose 2.5% (Glucan synthesis inhibitor) and agar 1.5%.

[8] = test system: Phytophthora infestans; details: in vivo
[9] = solubility (physico-chemical properties); format: physicochemical
From the text: The physico-chemical properties of Arthrichitin are as follows : Appearance : Colorless solid Solubility : Soluble in methanol and dimethylsulfoxide; insoluble in petroleum ether, chloroform, ethylacetate and water. Molecular weight : 642 (FAB MS) (Matrix : 3-nitrobenzyl alcohol) Molecular formula : C33H46N4O9 (calculated : […]; [observed : m/z 643.3341 (M + H)^+ (HR FAB-MS; matrix : MeOH/NBA; internal reference : polyethylene glycol 600); calculated for C33H47N4O9 : 643.3345] Melting point : 245°C [α]D : + 24.12°C (c 0.475, MeOH) HPLC retention time : 5.4 minutes [4 x (30 + 100) mm 10µ ODS ®Hypersil column; mobile phase : 35% acetonitrile in 0.02 M aqueous sodium phosphate buffer, pH 7.0; flow rate : 1 ml/min.; UV detection : 220 nm] UV λmax (MeOH) : 247, 266, 310 nm; no shift with acid and alkali IR (KBr) : Figure 1 ^1H NMR (300 MHz, DMSO-d6) : Figure 2 ^13C NMR (75 MHz, DMSO-d6) : Figure 3

In the case of `CCCCCCCCC(C)C1OC(=O)C(CO)NC(=O)C(C(=O)c2c[nH]c3ccccc23)NC(=O)C(CCC(=O)O)NC(=O)C1C` (centres unmarked) [Arthrichitin], the “activity against Pseudocercosporella herpotrichoides” value [1] is reported as “very good activity”, the “activity against Septoria nodorum” value [2] is reported as “very good activity” and the “activity against Pyricularia oryzae” value [3] is reported as “very good activity”. The “activity against Erysiphe graminis” value [4] was “very good activity”, the “activity against Plasmopara viticola” value [5] was “very good activity” and the “activity against Botrytis cinerea” value [6] was “very good activity”. For the same compound, the “activity as cell wall inhibiting compound” value [7] was “activity as cell wall inhibiting compound”, the “activity against Phytophthora infestans” value [8] was “very good activity” and the Solubility ([9]; chloroform) was “insoluble”. For the same compound, the Solubility ([9]; dimethylsulfoxide) was “Soluble”, the Solubility ([9]; ethylacetate) was “insoluble” and the Solubility ([9]; methanol) was “Soluble”. The Solubility ([9]; petroleum ether) was “insoluble” and the Solubility ([9]; water) was “insoluble”.
